# Entries after “also recorded” stand apart in the source; their conditions may differ.
# Experiments:
# CD4+ and CD8+ T cells [1] = assay: T cell activation (CD25, CD69) in CD20-TCB killing assay; format: cell-based; conditions: 24 hours, concentrations 0 nM to 100 nM
# [2] = test system: CD19-TCB-induced cytokine release; assay: CD19-TCB-induced cytokine release in SUDLH-8 assay (Luminex); format: cell-based; conditions: 24 hrs; 100 nM inhibitor
# Method: (§1) PBMCs were co-cultured together with CellTrace™ Violet (CTV) labelled SUDLH-8 tumor cells and escalating concentrations of CD19-TCB in the presence of the different kinase inhibitors, including also the Src inhibitor dasatinib (FIG. 64). At assay endpoint (24 hrs), the killing of CTV labelled SUDLH-8 cells was measured by flow cytometry by exclusion of the dead SUDLH-8 cells with a Live/Dead stain. […] Lastly, the levels of cytokines were measured in the supernatants of the assay to evaluate the effect of mTOR, JAK and Src inhibitors on CD19-TCB-induced cytokine release.
# (§2) At assay endpoint (24 hrs), the killing of CTV labelled SUDLH-8 cells was measured by flow cytometry by exclusion of the dead SUDLH-8 cells with a Live/Dead stain. […] Lastly, the levels of cytokines were measured in the supernatants of the assay to assess the effect of the JAK inhibitors on CD19-TCB-induced cytokine release.
# as §2, with “stain to evaluate the effect of the different mitigation approaches on CD19-TCB-dependent killing.” for “stain.”, “address” for “assess”
# [3] = test system: CD20-TCB-induced cytokine release; assay: CD20-TCB-induced cytokine release (Luminex); format: cell-based; conditions: 24 hours; CD20-TCB; escalating doses
# Method: A similar experiment was conducted with another TCB.
# (§3) A similar experiment was conducted with CD20-TCB.
# (§4) A similar experiment was conducted with CD20-TCB. WSU DLCL2 cells were co-cultured together with PBMCs in the presence of 1 nM CD20-TCB, and escalating everolimus doses ranging from 0 nM to 1000 nM (FIG. 13).
# (§5) A similar experiment was conducted with CD20-TCB. WSU DLCL2 cells were co-cultured together with PBMCs in the presence of 1 nM CD20-TCB, and escalating ruxolitinib doses ranging from 0 nM to 1000 nM (FIG. 13).
# (§6) A similar experiment was conducted with another TCB. […] The killing of B cells was measured as a readout for the impact of the various compounds on TCB efficacy at 24 h (FIGS. 27 and 28). […] Lastly, the levels of cytokines (TNF-α, IFN-γ, IL-2, IL-6, IL-4, IL-10, GM-CSF and IL-1β) were analyzed by Luminex at assay endpoint to assess the impact of the different treatments on TCB-induced cytokine release (FIGS. 32 and 33).
# (§7) At 24 hours, tumor cell killing was measured by flow cytometry by exclusion of dead CTV cells. The supernatants were collected and cytokines were measured by Luminex.
# [4] = test system: A375 NucLight Red (NLR) target-cells; assay: killing assay with PBMCs, A375 NLR target cells and MAGEA4-TCB (Incucyte); format: cell-based; conditions: 25 nM MAGEA4-TCB; 0 nM to 100 nM
# CD4+ and CD8+ T cells [5] = assay: T cell activation (CD25, CD69) in CD20-TCB killing assay; format: cell-based; conditions: 24 hours; CD20-TCB; concentration of 1 μM
# Method: (§8) A similar experiment was conducted with another TCB. WSU DLCL2 cells were co-cultured together with PBMCs in the presence of 1 nM CD20-TCB (SEQ ID NOs 4-11, 24-35), and escalating sirolimus doses ranging from 0 nM to 1000 nM (FIG. 13).
# as §3, §4, §5, §6, §7
# [6] = test system: MAGEA4-TCB-induced cytokine release; assay: MAGEA4-TCB-induced cytokine release; format: cell-based; conditions: 25 nM MAGEA4-TCB; 0 nM to 100 nM
# Method: FIG. 45. Effect of escalating concentrations (c) of ruxolitinib on IFN-γ (A), IL-2 (B), TNF-α (C), GM-CSF (D), IL-6 (E), IL-1β (F), IL-8 (G), MCP-1 (H) and IL-10 (I) levels induced by 8 nM MAGEA4-TCB. At 72 hours, the supernatants were collected and cytokines were analyzed by cytometric bead array (CBA). Mean of technical replicates+/−SD for 1 representative donor.
# FIG. 47. […] At 72 hours, the supernatants were collected and cytokines were analyzed by CBA. Mean of technical replicates+/−SD for 1 representative donor.
# The effect of ruxolitinib on TCB-induced tumor cell killing and cytokine release was assessed using an additional TCB, the MAGEA4-TCB (SEQ ID NOs 37-56).
# SUDLH-8 tumor cells = assay: killing assay with PBMCs, CTV labelled SUDLH-8 tumor cells and CD19-TCB; format: cell-based; conditions: 24 hrs; 100 nM kinase inhibitors or dexamethasone, 5 μg/mL antibodies
# Method: FIG. 64. In vitro killing assay set-up. PBMCs were co-cultured with CellTrace™ Violet (CTV) labelled SUDLH-8 tumor cells (E:T=10:1) in the presence of escalating concentrations of CD19-TCB in media supplemented with the different kinase inhibitors (100 nM) for 24 hrs.
# FIG. 69. In vitro killing assay set-up. PBMCs were co-cultured with CTV labelled SUDLH-8 cells (E:T=10:1) in the presence of escalating concentrations of CD19-TCB in media supplemented with the different JAK inhibitors (100 nM) for 24 hrs.
# FIG. 73. In vitro killing assay set-up.
# as §1, §2
# as §2, with “stain to evaluate the effect of the different mitigation approaches on CD19-TCB-dependent killing.” for “stain.”, “address” for “assess”
# CD4+ and CD8+ T cells [7] = assay: T cell activation (CD25, CD69 by flow cytometry) in CEA-TCB killing assay; format: cell-based; conditions: 10 nM CEA-TCB
# WSU DLCL2 tumor cells = assay: killing assay with PBMCs, CTV labelled WSU DLCL2 tumor cells and CD20-TCB; format: cell-based; conditions: 24 hours
# Method: FIG. 13. In vitro killing assay set-up.
# FIG. 14. […] At 24 hours, the tumor cells and PBMCs from technical replicates were pooled and stained with a LIVE/DEAD™ Near-IR dead cell dye to allow exclusion of dead CTV labelled WSU DLCL2 tumor cells by flow cytometry. Mean of n=3 donors+/−SEM.
# as §8, §6, §7
# [8] = cited from earlier work
# [9] = test system: MKN45 NucLight Red (NLR) target cells; assay: killing assay with PBMCs, MKN45 NLR target cells and CEA-TCB (Incucyte); format: cell-based
# [10] = test system: CEA-TCB-induced cytokine release; assay: CEA-TCB-induced cytokine release (Luminex, supernatants); conditions: 72 hrs; 10 nM CEA-TCB; concentrations 50 nM to 1 μM
# Method: The levels of cytokines were measured by Luminex in the supernatants of the assay to determine the impact of the different compounds on CEA-TCB-induced cytokine release.
# CD20+ B cells = assay: CD19-TCB-induced B cell depletion in humanized NSG mice; format: in vivo
# Text: FIG. 81. In vivo experiment timelines and dosing schedule.
# To best reproduce the pharmacodynamic profile of ruxolitinib, dasatinib and sirolimus in the clinic and to verify whether the resulting exposure would be sufficient to prevent CD19-TCB-induced cytokine release, dasatinib and ruxolitinib were given per os twice per day, and sirolimus was given per os twice per day on day 1 and then once per day.
# At 48 hrs and 72 hrs, blood was collected by tail-vein bleeding and the CD20+ B cell count was measured by flow cytometry (FIGS. 82A and B) to assess the effect of the different treatments on CD19-TCB-induced B cell depletion. […] Its half-life being around 6-7 hrs and dasatinib being given only twice per day, a lack of exposure could likely explain that CD19-TCB was partially active, resulting in B cell depletion. At experiment termination (72 hrs), spleens were collected and the B cell count was measured by flow-cytometry (FIG. 83). […] However, their inhibitory effect was stronger than methylprednisolone (FIG. 83).
compound,measurement,setting,value
"CCS(=O)(=O)N1CC(CC#N)(n2cc(-c3ncnc4[nH]ccc34)cn2)C1 [baricitinib, Baricitinib]",T cell activation (CD25 and CD69 on CD4+ and CD8+ T cells),CD4+ and CD8+ T cells [1],did not impair; also recorded: did not prevent
same,"CD19-TCB-induced IFN-γ, TNF-α, IL-6 and GM-CSF release",[2],prevented
same,CD19-TCB-induced cytokine release,[2],as potent as ruxolitinib
same,"levels of IFN-γ, TNF-α, GM-CSF, IL-6 and IL-8",[3],reduced
same,MAGEA4-TCB-induced tumor cell killing,[4],comparable to ruxolitinib
same,T cell activation,CD4+ and CD8+ T cells [5],slightly reduced
same,"MAGEA4-TCB-induced GM-CSF, IL-2, IFN-γ, TNF-α, IL-1β and IL-6 release",[6],comparable to ruxolitinib
same,CD19-TCB-dependent killing of CTV labelled SUDLH-8 cells,SUDLH-8 tumor cells,did not prevent
same,expression of CD25 on CD4+ and CD8+ T cells,"CD4+ and CD8+ T cells [7]; 72 hours, escalating concentrations, comparably to ruxolitinib",reduced
same,CD20-TCB induced tumor cell killing,WSU DLCL2 tumor cells; concentration of 1 μM,slightly reduced
same,CD20-TCB-induced tumor cell killing,WSU DLCL2 tumor cells; concentrations 0 nM to 100 nM,did not impair; also recorded: did not prevent
Cc1nc(Nc2ncc(C(=O)Nc3c(C)cccc3Cl)s2)cc(N2CCN(CCO)CC2)n1 [dasatinib],half-life,[8],6 to 7 h
"Cc1cnc(Nc2ccc(OCCN3CCCC3)cc2)nc1Nc1cccc(S(=O)(=O)NC(C)(C)C)c1 [fedratinib, Fedratinib]",MKN45 NLR target cell killing by 10 nM CEA-TCB,[9]; doses below 1 μM,only a minor effect
same,MKN45 NLR target cell killing by 10 nM CEA-TCB,"[9]; inhibitor doses 12.5 nM to 1 μM, 50 000 PBMCs: 5 000 target cells, Incucyte",only partially reduced
same,"levels of IFN-γ, IL-2, TNF-α, IL-6 and IL-8",[10],reduced
same,expression of CD69 and CD25 on CD4+ T cells and CD8+ T cells,"CD4+ and CD8+ T cells [7]; 72 hrs, concentrations below 1 μM",did not affect
"C[C@@H]1CCN(C(=O)CC#N)C[C@@H]1N(C)c1ncnc2[nH]ccc12 [tofacitinib, Tofacitinib]","CD19-TCB-induced IFN-γ, TNF-α, IL-6 and GM-CSF release",[2],prevented
same,CD19-TCB-induced cytokine release,[2],as potent as ruxolitinib
same,CD19-TCB-dependent killing of CTV labelled SUDLH-8 cells,SUDLH-8 tumor cells,did not prevent
obinutuzumab,depletion of B cells in blood (CD20+ B cell count),"CD20+ B cells; 48 hrs and 72 hrs, 0.5 mg/kg CD19-TCB i.v., obinutuzumab pre-treatment 30 mg/kg i.v.",complete depletion
same,CD19-TCB-induced CD20+ B cell depletion in the spleen,CD20+ B cells; 72 hrs (termination),complete depletion
